This is an account of results in publication PMC6445163, “Design, synthesis, and evaluation of novel 2-phenylpropionic acid derivatives as dual COX inhibitory-antibacterial agents” (Journal of Enzyme Inhibition and Medicinal Chemistry, 2017).

≈ marks a conversion by molar mass, not a printed value.

For one data set, the target named is T1, COX-1 (Ovis aries, UniProt P05979).
T1 construct: purchased Biovision K548-100
T1 sequence (P05979 25-600): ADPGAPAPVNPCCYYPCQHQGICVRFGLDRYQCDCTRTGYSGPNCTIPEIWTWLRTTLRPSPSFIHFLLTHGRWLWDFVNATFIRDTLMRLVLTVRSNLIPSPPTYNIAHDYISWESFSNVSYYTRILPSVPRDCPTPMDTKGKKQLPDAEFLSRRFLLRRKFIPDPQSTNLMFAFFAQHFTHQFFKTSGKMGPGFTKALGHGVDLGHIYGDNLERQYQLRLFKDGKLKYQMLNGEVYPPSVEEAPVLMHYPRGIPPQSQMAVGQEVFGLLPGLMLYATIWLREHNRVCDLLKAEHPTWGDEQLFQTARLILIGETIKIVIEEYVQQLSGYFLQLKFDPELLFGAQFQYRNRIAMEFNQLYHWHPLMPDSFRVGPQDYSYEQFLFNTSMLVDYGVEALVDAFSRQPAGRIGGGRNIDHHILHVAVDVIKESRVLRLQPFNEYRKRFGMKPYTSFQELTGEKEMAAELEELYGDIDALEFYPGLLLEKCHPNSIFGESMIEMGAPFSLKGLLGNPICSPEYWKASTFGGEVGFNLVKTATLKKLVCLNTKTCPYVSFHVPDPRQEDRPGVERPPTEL
Description: fluorometric COX-1 inhibitor screening kit assay. Type of data set: biochemical. The conditions noted are these: for SI (selectivity index): IC50 (COX-1)/IC50 (COX-2); for IC50: fluorometric kit, 25 °C; for Selectivity: isoform preferred according to SI.

Data set [1] concerns Enterococcus faecalis (ATCC 29212). Description: broth microdilution MIC (CLSI M07-A9), resazurin. It is filed as cell-based. Conditions: ATCC29212, 24 h. On the procedure:
(§1) Microbiological studies were performed according to following guides: CLSI reference […]-A9 broth microdilution method[49] for bacterial strains and EUCAST definitive (EDef 7.1) method[50] for Candida species. Synthesized compounds were tested for their in vitro growth inhibitory activity against Staphylococcus aureus (ATCC 25923), Enterococcus faecalis (ATCC 29212), Listeria monocytogenes (ATCC 1911), Klebsiella pneumoniae (NCTC 9633), Escherichia coli (ATCC 35218), E. coli (ATCC 25922) Candida albicans (ATCC 24433) Candida krusei (ATCC 6258) and Candida parapsilosis (ATCC 22019). Chloramphenicol and ketoconazole were used as control drugs. The cultures were obtained from the Mueller-Hinton broth (Difco) for the bacterial strains after overnight incubation at 37 °C. The yeasts were maintained in Roswell Park Memorial Institute (RPMI) after overnight incubation at 37 °C. […] Testing was carried out in Mueller-Hinton broth and RPMI at pH =7, and the two-fold serial dilutions technique was applied. The last well on the microplates containing only inoculated broth was kept as controls and the last well with no growth of microorganism was recorded to represent the minimum inhibitory concentration (MIC) expressed in μg/mL. For both the antibacterial and antifungal assays, the compounds were dissolved in DMSO. […] The completed plates were incubated for 24 h. At the end of the incubation, resazurin (20 μg/mL) was added into each well and plates were incubated for 2 h. MIC values were determined using a microplate reader at […]. Synthesized compounds (6a-6m) were evaluated for antimicrobial activity against various microorganisms such as Staphylococcus aureus (ATCC 25923), Enterococcus faecalis (ATCC 29212), Listeria monocytogenes (ATCC 1911), Klebsiella pneumoniae (NCTC 9633), Escherichia coli (ATCC 35218), E. coli (ATCC 25922)Candida albicans (ATCC 24433) Candida krusei (ATCC 6258) and Candida parapsilosis (ATCC 22019). […] Chloramphenicol and ketoconazole were used as standard drugs in the activity test. […] Besides, the compounds 6d, 6h, 6l and 6m indicated stronger antibacterial activity than the other compounds in the series.

For data set [2], the system named is Escherichia coli (ATCC 25922). Briefly: broth microdilution MIC (CLSI M07-A9), resazurin. It is filed as cell-based. The conditions noted are these: ATCC25922, 24 h, read-out: MIC Ec-2. As to the method:
as §1

In data set [3] the test system is Escherichia coli (ATCC 35218). Briefly: broth microdilution MIC (CLSI M07-A9), resazurin. Conditions: ATCC35218, 24 h, read-out: MIC Ec-1. Type of data set: cell-based. On the procedure:
as §1

For data set [4], the system named is Klebsiella pneumoniae (NCTC 9633). Description: broth microdilution MIC (CLSI M07-A9), resazurin. It is filed as cell-based. Conditions: 24 h. As to the method:
as §1

For data set [5], the system named is Listeria monocytogenes (ATCC 1911). Description: broth microdilution MIC (CLSI M07-A9), resazurin. It is filed as cell-based. The conditions noted are these: ATCC1911, 24 h. On the procedure:
as §1

Data set [6] has as its system Staphylococcus aureus (ATCC 25923). Briefly: broth microdilution MIC (CLSI M07-A9), resazurin. Conditions: ATCC25923, 24 h. It is filed as cell-based. On the procedure:
as §1

As for `COc1ccc2sc(SCc3ccc(C(C)C(=O)O)cc3)nc2c1` (stereo not drawn) [Compound 6h, 2-(4-(((5-Methoxybenzo[d]thiazol-2-yl)thio)methyl)phenyl)propanoic acid], the “SI (selectivity index)” value on COX-1 is 0.59. The IC50 on COX-1 was determined as 1.76 µM. Besides, the Selectivity result at COX-1 is recorded as “COX-1”. Moreover, the MIC in data set [1] is 12.5 µg/mL (≈ 34.8 µM); in data set [2], 12.5 µg/mL (≈ 34.8 µM); in data set [3], 6.25 µg/mL (≈ 17.4 µM); in data set [5], 6.25 µg/mL (≈ 17.4 µM); in data set [6], 12.5 µg/mL (≈ 34.8 µM). In data set [4], the “MIC Kp” value worked out at 6.25 µg/mL (≈ 17.4 µM).
On to `COc1ccc2[nH]c(SCc3ccc(C(C)C(=O)O)cc3)nc2c1` (stereo not drawn) [Compound 6l, 2-(4-(((5-Methoxy-1H-benzo[d]imidazol-2-yl)thio)methyl)phenyl)propanoic acid], for which the “SI (selectivity index)” value on COX-1 worked out at 0.60. Also, half-maximal inhibition against COX-1 (IC50) required 1.4 µM. Moreover, the Selectivity result at COX-1 is “COX-1”. Also, the MIC in data set [1] stood at 12.5 µg/mL (≈ 36.5 µM); in data set [2], 12.5 µg/mL (≈ 36.5 µM); in data set [3] it was 6.25 µg/mL (≈ 18.3 µM); in data set [5], 6.25 µg/mL (≈ 18.3 µM); in data set [6], 12.5 µg/mL (≈ 36.5 µM). The “MIC Kp” value in data set [4] was 6.25 µg/mL (≈ 18.3 µM).
